Test results taken from the supplement of paper PMC11451515.

Test system: P12-Ichikawa
Experiment: cell viability relative to DMSO control; higher = less cytotoxic
Conditions: 48 h
In short: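 Viability was expressed as a per-plate percentage of DMSO wells, with cell-free wells as background. Leukemia cells (NOMO1 or SEM at 500 cells/well, P12-Ichikawa at 1000 cells/well) were adapted for at least four passages in each medium and seeded in 1536-well plates (5 μl). Library compounds in DMSO were pin-dosed over an 11-point threefold series from 47 μM to 0.79 nM, and CellTiter-Glo One luminescence was read after 48 h at 37°C.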

[1] = HPLM + 10% dialyzed FBS, 0.000781 µM
[2] = HPLM + 10% dialyzed FBS, 0.00234 µM
[3] = HPLM + 10% dialyzed FBS, 0.00702 µM
[4] = HPLM + 10% dialyzed FBS, 0.0211 µM
[5] = HPLM + 10% dialyzed FBS, 0.0632 µM
[6] = HPLM + 10% dialyzed FBS, 0.19 µM
[7] = HPLM + 10% dialyzed FBS, 0.569 µM
[8] = HPLM + 10% dialyzed FBS, 1.71 µM
[9] = HPLM + 10% dialyzed FBS, 5.12 µM
[10] = HPLM + 10% dialyzed FBS, 15.4 µM
[11] = HPLM + 10% dialyzed FBS, 46.1 µM
[12] = RPMI 5 mM glucose + 10% FBS, 0.000781 µM
[13] = RPMI 5 mM glucose + 10% FBS, 0.00234 µM
[14] = RPMI 5 mM glucose + 10% FBS, 0.00702 µM
[15] = RPMI 5 mM glucose + 10% FBS, 0.0211 µM
[16] = RPMI 5 mM glucose + 10% FBS, 0.0632 µM
[17] = RPMI 5 mM glucose + 10% FBS, 0.19 µM
[18] = RPMI 5 mM glucose + 10% FBS, 0.569 µM
[19] = RPMI 5 mM glucose + 10% FBS, 1.71 µM
[20] = RPMI 5 mM glucose + 10% FBS, 5.12 µM
[21] = RPMI 5 mM glucose + 10% FBS, 15.4 µM
[22] = RPMI 5 mM glucose + 10% FBS, 46.1 µM
[23] = RPMI 5 mM glucose + 10% dialyzed FBS, 0.000781 µM
[24] = RPMI 5 mM glucose + 10% dialyzed FBS, 0.00234 µM
[25] = RPMI 5 mM glucose + 10% dialyzed FBS, 0.00702 µM
[26] = RPMI 5 mM glucose + 10% dialyzed FBS, 0.0211 µM
[27] = RPMI 5 mM glucose + 10% dialyzed FBS, 0.0632 µM
[28] = RPMI 5 mM glucose + 10% dialyzed FBS, 0.19 µM
[29] = RPMI 5 mM glucose + 10% dialyzed FBS, 0.569 µM
[30] = RPMI 5 mM glucose + 10% dialyzed FBS, 1.71 µM
[31] = RPMI 5 mM glucose + 10% dialyzed FBS, 5.12 µM
[32] = RPMI 5 mM glucose + 10% dialyzed FBS, 15.4 µM
[33] = RPMI 5 mM glucose + 10% dialyzed FBS, 46.1 µM

Row | SMILES | cell viability [1] [%] | cell viability [2] [%] | cell viability [3] [%] | cell viability [4] [%] | cell viability [5] [%] | cell viability [6] [%] | cell viability [7] [%] | cell viability [8] [%] | cell viability [9] [%] | cell viability [10] [%] | cell viability [11] [%] | cell viability [12] [%] | cell viability [13] [%] | cell viability [14] [%] | cell viability [15] [%] | cell viability [16] [%] | cell viability [17] [%] | cell viability [18] [%] | cell viability [19] [%] | cell viability [20] [%] | cell viability [21] [%] | cell viability [22] [%] | cell viability [23] [%] | cell viability [24] [%] | cell viability [25] [%] | cell viability [26] [%] | cell viability [27] [%] | cell viability [28] [%] | cell viability [29] [%] | cell viability [30] [%] | cell viability [31] [%] | cell viability [32] [%] | cell viability [33] [%]
1 | O=c1oc2cc(O)ccc2s1 | 114 | 115 | 111 | 115 | 116 | 117 | 115 | 110 | 108 | 106 | 104 | 115 | 131 | 95.8 | 116 | 117 | 116 | 117 | 107 | 108 | 107 | 96.8 | 104 | 126 | 109 | 112 | 111 | 116 | 114 | 104 | 100 | 103 | 85.9
2 | CCC(=O)NC[C@H](Cc1ccc(OCCc2nc(-c3ccccc3)oc2C)cc1)N/C(C)=C\C(=O)c1ccc(C(F)(F)F)cc1 | 102 | 97.6 | 93.8 | 104 | 109 | 106 | 91.1 | 99.1 | 76 | 35 | 8.82 | 95.8 | 98 | 103 | 112 | 106 | 110 | 77.7 | 105 | 66.7 | 50.4 | 7.18 | 98.3 | 99.4 | 100 | 104 | 99.3 | 99.7 | 83.6 | 86.8 | 62.1 | 53.3 | 11.8
3 | OC[C@H]1OC(O)C[C@@H](O)[C@@H]1O (stereo not given in full) | 122 | 124 | 114 | 118 | 121 | 120 | 115 | 119 | 121 | 118 | 107 | 119 | 122 | 124 | 115 | 134 | 119 | 131 | 131 | 120 | 116 | 112 | 107 | 125 | 119 | 117 | 116 | 116 | 119 | 123 | 124 | 122 | 110
4 | NCCOc1cc(C(=O)Nc2cc(OCCN)c3ccccc3n2)nc(C(=O)Nc2cc(OCCN)c3ccccc3n2)c1 | 44.2 | 13.1 | 12.7 | 12.8 | 14.1 | 12.8 | 13.3 | 9.79 | 7.51 | 21.5 | 61.7 | 113 | 120 | 113 | 19 | 17.4 | 17 | 15.7 | 16 | 16.7 | 24.4 | 68.8 | – | – | – | – | – | – | – | – | – | – | –
5 | CC(C)(Sc1cc(C(C)(C)C)c(O)c(C(C)(C)C)c1)Sc1cc(C(C)(C)C)c(O)c(C(C)(C)C)c1 | 88.5 | 84.4 | 90 | 96.2 | 94.1 | 91 | 95.7 | 89.4 | 97 | 99.7 | 99.9 | 80.2 | 77.9 | 87.2 | 85.6 | 83.9 | 92.8 | 93.7 | 85.4 | 79.2 | 92.8 | 92.8 | 79.2 | 85.3 | 82.3 | 85.6 | 87.8 | 87.6 | 84.7 | 87.2 | 81.3 | 81.2 | 88.4
6 | Cc1cccc(-c2[nH]c(C(C)(C)C)nc2-c2ccc3nccnc3c2)n1 | 120 | 124 | 124 | 126 | 125 | 120 | 118 | 110 | 112 | 112 | 48 | 122 | 122 | 115 | 116 | 124 | 121 | 108 | 119 | 106 | 106 | 81.4 | – | – | – | – | – | – | – | – | – | – | –
7 | CO[C@H]1C[C@@H]2CC[C@@H](C)[C@@](O)(O2)C(=O)C(=O)N2CCCC[C@H]2C(=O)O[C@H]([C@@H](C)C[C@@H]2CC[C@@H](O)[C@H](OC)C2)CC(=O)[C@H](C)/C=C(\C)[C@@H](O)[C@@H](OC)C(=O)[C@H](C)C[C@H](C)/C=C/C=C/C=C/1C | 118 | 127 | 122 | 125 | 124 | 116 | 121 | 124 | 113 | 112 | 91.8 | – | – | – | – | – | – | – | – | – | – | – | – | – | – | – | – | – | – | – | – | – | –
8 | CCc1nc(N)nc(N)c1-c1ccc(Cl)cc1 | 93.6 | 97.3 | 89.5 | 98.6 | 95.5 | 89.1 | 76.1 | 56.5 | 46.2 | 33.8 | 21.9 | 91.2 | 91.9 | 88.6 | 93.4 | 107 | 97 | 98.4 | 90 | 87.3 | 68.4 | 57.1 | 82.2 | 91.3 | 89 | 96.6 | 95.3 | 90.1 | 84.3 | 85.2 | 86.5 | 48.3 | 24.4
